Test: wn = mass fraction of the nth substance listed
Conditions: 298.15 K, 101 kPa, Liquid; for viscosity: Capillary tube (Ostwald / Ubbelohde) method; for mass density: Pycnometric method

C[S+](C)[O-] [dimethyl sulfoxide] + CC#N
Conditions | mass density [kg/m3] | viscosity [mPa·s]
w1 = 0.2 | 829.3 | 0.4196
w1 = 0.4 | 883.3 | 0.5249
w1 = 0.6 | 945.6 | 0.7147

— the NIST ThermoML archive (doi:10.1016/j.jct.2009.03.005)
